The results in this text go back to US11788044B2, “Rheologically biomimetic fluid surrogate” (EMULATE, INC., priority 2017, dated 2023).

The subject of experiment [1] is neutrophil recruitment to the endothelium. Description: Neutrophil recruitment in Airway-on-Chip emulating acute asthma exacerbation (HRV-16 infection, IL-13 stimulation). Type of experiment: cell-based, human. As to conditions: 10 microM; three stimulation conditions (HRV-16, IL-13, HRV-16+IL-13); chips flipped. The source says:
As shown here, exemplary embodiments of an inflamed Airway-on-Chip emulating acute asthma exacerbation by combining Rhinovirus infection with IL-13 stimulation in the presence of an exemplary immuno-modulatory compound. In some embodiments, neutrophil recruitment following exacerbation with HRV can be reduced by an exemplary CXCR2 antagonist MK-7123, however these experiments were done by flipping chips. […] HRV-16 is represented as small green dots in the upper channel while neutrophil cells (also described as polymorphonuclear leukocytes (PMN)) are represented as large purple spots in the lower channel. […] Treatments included HRV-16 alone infected cells, IL-13 alone treated cells, HRV-16 and (+) IL-13 treated cells, HRV-16+CXCR2in (inhibitor) treated cells, and HRV-16+IL-13+CXCR2in. Non-stimulated chips are showing limited neutrophil recruitment while HRV infected and IL-13-treated chips show increased neutrophil recruitment. IL-13+HRV induce an additive increase in neutrophil recruitment, while treatment with a CXCR2 antagonist. […] Quantification of neutrophil recruitment (**p<0.01; ****p<0.001).
HRV-16 is represented as small green dots in the upper channel while neutrophil cells (also described as polymorphonuclear leukocytes (PMN)) are represented as large purple spots in the lower channel. […] Quantification of neutrophil recruitment (**p<0.01; ****p<0.001).

The subject of experiment [2] is goblet cells hyperplasia, pro-inflammatory cytokines, cilia beating frequency. Description: Small-airway-on-a-chip perfused with IL-13 (Th2 microenvironment), airway remodeling phenotype. Type of experiment: cell-based, human. As to conditions: IL-13 through the vascular channel.

On to `CC[C@@H](Nc1c(Nc2cccc(C(=O)N(C)C)c2O)c(=O)c1=O)c1ccc(C)o1` [MK-7123], for which the neutrophil recruitment entry in experiment [1] is “significantly reduced neutrophil recruitment”.
In the case of `C[C@@H]1CCN(C(=O)CC#N)C[C@@H]1N(C)c1ncnc2[nH]ccc12` [Tofacitinib], the “IL-13 induced airway remodeling phenotype” value in experiment [2] is “suppressed”.
